What all share (format): in vivo, rat
The subject of test [1] is diabetic rats. The test is described as follows: Major pelvic ganglion blood flow by hydrogen clearance. To be noted: 1 mg/kg/day in food for 2 weeks.
Test [2] relates to diabetic rats. The test is described as follows: Randall-Sellito test, mechanical pressure thresholds. To be noted: 1 mg/kg/day in food for 2 weeks. As for the experimental part: (§1) Diabetes was induced in mature (19 week old) male Sprague-Dawley by streptozotocin injection (40-45 mg/kg i.p.). The diabetic state was monitored weekly using commercially available test strips for blood (tail vein) and urine glucose levels. Body weight would also be monitored daily. The criteria for the diabetic state are; blood glucose>19.9 mM, glycosuria, and no evidence of body weight gain (which would indicate partial recovery of beta cell function). At the end of the experiments, blood samples would be taken for the determination of plasma glucose.
Experiments were designed with a reversal (intervention) paradigm: diabetic rats were untreated for 6 weeks to allow the development of neurovascular dysfunction. They were then treated over the next 2 weeks with a dose of 1 mg/kg/day of a representative compound of the invention, 13-HODE, given as a dietary supplement dispersed in the food with a sunflower oil vehicle (50 ml/2.5 kg food). Groups of nondiabetic control rats and diabetic rats treated with vehicle alone were also studied.
Groups of non-diabetic control rats, diabetic rats treated with vehicle alone and diabetic rats treated with 13-HODE were obtained as in Example 4.
Before final experiments, nociceptive thresholds for mechanical stimulation were measured by the Randall-Sellito test . […]

The test system of test [3] is diabetic rats. In words: Corpus cavernosum pressure responses to cavernous nerve stimulation. Here is the method: as §1
(§2) Experiments were designed with a reversal (intervention) paradigm: diabetic rats were untreated for 6 weeks to allow the development of neurovascular dysfunction. They were then treated over the next 2 weeks with a dose of 1 mg/kg/day of a representative compound of the invention, 13-HODE, given as a dietary supplement dispersed in the food with a sunflower oil vehicle (50 ml/2.5 kg food). Groups of nondiabetic control rats and diabetic rats treated with vehicle alone were also studied. […]
Non-diabetic control rats, diabetic rats treated with vehicle alone and diabetic rats treated with 13-HODE were anaesthetized with thiobutabarbital (50-100 mg kg^−1 i.p.). […] Cavernosal pressure responses were recorded in response to 60 s periods of suprathreshold (3-5 mA) nerve stimulation at frequencies in the range 1-32 Hz (stimulus duration 1.5-2 ms). […]

The subject of test [4] is diabetic rats. The test is described as follows: Hargreaves plantar test, withdrawal latency to noxious thermal stimulation of the foot. As to conditions: 1 mg/kg/day in food for 2 weeks. As for the experimental part: as §1
Experiments were designed with a reversal (intervention) paradigm: diabetic rats were untreated for 6 weeks to allow the development of neurovascular dysfunction. They were then treated over the next 2 weeks with a dose of 1 mg/kg/day of a representative compound of the invention, 13-HODE, given as a dietary supplement dispersed in the food with a sunflower oil vehicle (50 ml/2.5 kg food). […]
Before final experiments, nociceptive latencies for withdrawal reflexes to noxious thermal stimulation of the foot were estimated by the Hargreaves plantar test using commercially available equipment (Ugo-Basile, Comerio, Italy). […] After 30 min acclimatization, a constant power infrared stimulus was focused through the glass base onto the sole of the foot and the latency for reflex foot withdrawal automatically recorded via a photoelectric monitor. […]

Test [5] deals with diabetic rats. The test is described as follows: Tactile allodynia, electronic von Freys hair apparatus. As to conditions: 1 mg/kg/day in food for 2 weeks. Here is the method: as §1, §2
Tactile allodynia in non-diabetic control rats, diabetic rats treated with vehicle alone and diabetic rats treated with 13-HODE was monitored using an electronic von Freys hair apparatus. […] Allodynia was measured for each foot on one day.

Test [6] deals with diabetic rats. The test is described as follows: Sensory nerve conduction velocity (NCV) in saphenous nerve of streptozotocin-diabetic rats. As to conditions: 2-week daily oral treatment after 6 weeks untreated diabetes, diabetic around 50 m/s, non-diabetic around 60 m/s. Here is the method:
(§3) Male Sprague-Dawley rats (Aberdeen University colony) were used, which were 19 weeks old at the start of the study. Diabetes was induced by intraperitoneal streptozotocin injection at 40-45 mg kg^−1 freshly dissolved in sterile 0.9% saline solution. This was verified 24 hours later by estimating hyperglycaemia (blood glucose>19.9 mM) and glycosuria, and diabetic state was monitored weekly using test strips for blood (tail vein) and urine glucose levels. Body weight was also monitored daily to check against body weight gain (which would indicate partial recovery of beta cell function and exclude diabetic status).
(§4) After 6 weeks of untreated diabetes, four experimental groups (n=6 per group) were treated for a 2-week period, with a daily oral administration of 13-HODE at a range of dosages (13-Hydoxydienoic acid, Equateq, Isle of Lewis, UK), added to the food and dispersed in a sunflower oil vehicle. Experimental groups were treated with doses of a representative compound of the invention,13-HODE, ranging from 0.01 mg/kg/day to 100 mg/kg/day.
Rats were anaesthetized with thiobutabarbital sodium (50-100 mg kg^−1 i.p.). […]
An experiment was carried out in a similar fashion to Example 1 except that Sensory NCV was measured in the saphenous nerve between groin and mid calf. Direct nerve evoked potentials were recorded at the ankle using a unipolar platinum hook electrode. […]

The subject of test [7] is diabetic rats. In words: Motor nerve conduction velocity (NCV) in sciatic nerve of streptozotocin-diabetic rats. To be noted: for motor NCV: 2-week daily oral treatment after 6 weeks untreated diabetes, diabetic around 50 m/s, non-diabetic around 60 m/s; for ED50: Rattus norvegicus, calculated from dose response curves of FIG. 13; for times more potent than GLA in restoring motor nerve conduction velocity: from ED50 values. Here is the method: as §3, §4
Rats were anaesthetized with thiobutabarbital sodium (50-100 mg kg^−1 i.p.). The trachea was cannulated for artificial respiration.
The sciatic nerve was exposed between the sciatic notch and knee, and Motor nerve conduction velocity (NCV) was measured using concentric bipolar electrodes, as described in Cameron N E, et al (1989) Q J Exp Physiol 74:917-926 and Cameron N E, et al (1991) Diabetes 40:532-539, in the nerve branch to tibialis anterior muscle, which is representative of the whole sciatic nerve in terms of susceptibility to diabetes and treatment effects. Evoked electromyographic (EMG) potentials from each stimulating site were averaged 8 times, and Motor NCV was calculated by dividing the distance between stimulating electrodes by the average latency difference between the onset of EMG potentials evoked from the 2 sites. Nerve temperatures were monitored by thermocouple probes, and maintained in the range 36-38° C. by radiant heat. Body temperature was also maintained around 37° C. using a heated blanket.
Experiments were carried out in similar fashions to Examples 1 and 2 except that 15-HETrE was used instead of 13-HODE.
An experiment was carried out in accordance with the method of Example 1 to determine the effect of GLA, 13-HODE and 15-HETrE on Motor NCV in diabetic rats.

In test [8] the test system is diabetic rats. In words: Sciatic nerve endoneurial blood flow by microelectrode polarography and hydrogen clearance. As to conditions: 1 mg/kg/day in food for 2 weeks, flow halved in diabetic rats. As for the experimental part:
Diabetes was induced in mature (19 week old) male Sprague-Dawley by streptozotocin injection (40-45 mg/kg i.p.). The diabetic state was monitored weekly using commercially available test strips for blood (tail vein) and urine glucose levels. Body weight would also be monitored daily. The criteria for the diabetic state are; blood glucose>19.9 mM, glycosuria, and no evidence of body weight gain (which would indicate partial recovery of beta cell function). At the end of the experiments, blood samples would be taken for the determination of plasma glucose. […]
Sciatic nerve endoneurial blood flows in non-diabetic control rats, diabetic rats treated with vehicle alone and diabetic rats treated with 13-HODE were estimated by microelectrode polarography and hydrogen clearance, using the methods described in Day T J, Lagerlund T D, Low P A (1989) Analysis of H2 clearance curves used to measure blood flow in rat sciatic nerve, J Physiol 414:35-54, and Cameron N E, Cotter M A, Low P A (1991) Nerve blood flow in early experimental diabetes in rats: relation to conduction deficits, Am J Physiol 261:E1-E8. […] The level of anaesthesia was monitored by observing any reaction of blood pressure to manipulation, and supplementary thiobutabarbital anaesthetic given as necessary. […]

One may read the ED50 as the dose that gives a 50% effect, or the effect in half of the subjects. Turning to `CCCCCC(O)/C=C/C=C\CCCCCCCC(=O)O` (stereo not shown) [13-HODE, 13-Hydroxyoctadeca-9Z,11E-dienoic acid], the “major pelvic ganglion blood flow” value in the test on diabetic rats [1] is on record as “restored to within the nondiabetic range”. In addition, the “sensitivity to mechanical deep pressure (foot withdrawal)” value with diabetic rats [2] is given as “small but statistically significant improvement”. The “whole-frequency response curve versus nondiabetic controls” value with diabetic rats [3] (1 mg/kg/day for 2 weeks, 2-way ANOVA p<0.01) is listed as “significantly greater pressure response”. The “cavernosal pressure responses to nerve stimulation: diabetic deficit” value in the test with diabetic rats [3] (1 mg/kg/day in food for 2 weeks, stimulation 1-32 Hz) is on record as “completely corrected”. Moreover, in the test on diabetic rats [4], the “latency of response to thermal stimuli (increased sensitivity to noxious heat)” value was “completely corrected”. Besides, in the test on diabetic rats [5], the “tactile allodynia (threshold for foot withdrawal to tactile stimulation)” value is reported as “almost completely reversed”. For the same compound, the “sensory NCV” value in the test on diabetic rats [6] was “around 60 m/s”. In the test with diabetic rats [7], the “motor NCV” value is listed as “around 60 m/s”, the ED50 is 0.057 mg/kg and the “times more potent than GLA in restoring motor nerve conduction velocity” value is “approximately 3000 times”. The “sciatic nerve endoneurial blood flow” value in the test with diabetic rats [8] is recorded as “completely restored”.
As to `CCCCCC(O)/C=C/C=C\C/C=C\CCCCCCC(=O)O` (stereo not shown) [15-HETrE, 15-Hydroxy-eicosa-8Z,11Z,13E-trienoic acid], the “sensory NCV” value with diabetic rats [6] is “around 60 m/s”. For the same compound, in the test with diabetic rats [7], the “motor NCV” value is listed as “around 60 m/s”, the ED50 was 0.252 mg/kg and the “times more potent than GLA in restoring motor nerve conduction velocity” value was “approximately 500 times”.
Take `CCCCC/C=C\C/C=C\C/C=C\CCCCC(=O)O` [GLA, gamma-linolenic acid, reference compound]: the ED50 with diabetic rats [7] was 165 mg/kg.

The values above are taken from US20120122982A1, “USE OF PUFAS TO TREAT NERVE DAMAGE” (Equateq Limited, priority 2009, published 2012).
